From ChEMBL document CHEMBL1201862, “PubChem BioAssay data set” (2004) come the findings set out here.

Among the test systems are EKVX; HCC 2998; HCT-15; HOP-62; KM12; LOX IMVI; MCF7; MOLT-4; Malme-3M; NCI-H23; NCI-H460; NCI-H522; PC-3; RPMI-8226; SK-MEL-28; SNB-19; SW-620; U-251; UO-31.
Common to all, as to experiment: growth of human tumour cells (NCI), 48 h

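Cells were grown in 96-well plates and exposed to each compound for 48 hours at five concentrations; endpoints were interpolated linearly between bracketing concentrations, or set to the highest concentration if not reached. The concentration for 50% growth inhibition is given as GI50.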 Active and inactive are the calls of the source. Cut-off read from the data, not from the text of the source: active = GI50 up to about 1.1 µM and inactive = higher.

As to `CC1=CC(=O)c2c(O)cccc2C1=O` [PLUMBAGIN], the GI50 is 1.6 µM (inactive) with EKVX; 2.07 µM (inactive) with HCC 2998; 1.7 µM with HCT-15; 5.52 µM (inactive) in the experiment with HOP-62; 6.17 µM (inactive) with KM12; 1.81 µM (inactive) with LOX IMVI. Also, the GI50 with MCF7 is 1.79 µM (inactive); in the experiment on MOLT-4, 0.236 µM (active); in the experiment on Malme-3M it was 0.966 µM (active); with NCI-H23, 1.81 µM (inactive); with NCI-H460, 3.64 µM (inactive); in the experiment on NCI-H522, 1.57 µM (inactive). Besides, the GI50 is 2.21 µM (inactive) in the experiment on PC-3; 0.891 µM (active) in the experiment on RPMI-8226; 1.82 µM (inactive) in the experiment on SK-MEL-28; 12 µM (inactive) in the experiment on SNB-19; 1.91 µM (inactive) in the experiment with SW-620; 6.17 µM (inactive) with U-251. Besides, the GI50 in the experiment with UO-31 was 1.61 µM (inactive).

Regarding `CN1CCN(CC(=O)Nc2cccc3ccccc23)CC1`, the GI50 in the experiment on EKVX is > 100 µM (inactive); with HCC 2998 it was > 100 µM (inactive); in the experiment on HCT-15 it was above 100 µM; with HOP-62 it was > 100 µM (inactive); in the experiment on KM12, > 100 µM (inactive); in the experiment with LOX IMVI it was > 100 µM (inactive). The GI50 with MCF7, in the experiment on MOLT-4, in the experiment with Malme-3M, in the experiment with NCI-H23, in the experiment with NCI-H460 and in the experiment with NCI-H522 was > 100 µM (inactive) in each case. Moreover, the GI50 in the experiment with PC-3, in the experiment with RPMI-8226, with SK-MEL-28, in the experiment with SNB-19, in the experiment on SW-620 and in the experiment on U-251 was > 100 µM (inactive) throughout. Also, the GI50 with UO-31 was > 100 µM (inactive).

In the case of `CCN(CC)CCC(=O)Nc1ccc2sc3ccccc3c(=O)c2n1`, the GI50 was 25.9 µM (inactive) with EKVX; 19.7 µM (inactive) in the experiment with HCC 2998; 19.3 µM in the experiment with HCT-15; 16 µM (inactive) in the experiment on HOP-62; 16.3 µM (inactive) in the experiment on KM12; 14 µM (inactive) with LOX IMVI. The GI50 with MCF7 was 13.3 µM (inactive); in the experiment on MOLT-4, 7.78 µM (inactive); with Malme-3M, 23.4 µM (inactive); with NCI-H23, 17.8 µM (inactive); in the experiment with NCI-H460, 23.1 µM (inactive); with NCI-H522 it was 14.8 µM (inactive). In addition, the GI50 with PC-3 was 15.4 µM (inactive); in the experiment on RPMI-8226, 12.1 µM (inactive); with SK-MEL-28 it was 16.7 µM (inactive); in the experiment with SNB-19, 16.7 µM (inactive); in the experiment with SW-620 it was 12 µM (inactive); with U-251, 14.9 µM (inactive). The GI50 in the experiment with UO-31 was 10.4 µM (inactive).

`Cc1nc(O)nc(N/N=C/c2ccc(Cl)c(Cl)c2)c1C(=O)Nc1ccc(Cl)c(Cl)c1`: the GI50 was 30 µM (inactive) in the experiment on EKVX; > 51.8 µM (inactive) in the experiment on HCC 2998; 11.7 µM with HCT-15; 10.8 µM (inactive) in the experiment with HOP-62; 6.49 µM (inactive) with KM12; 15.1 µM (inactive) in the experiment on LOX IMVI. In addition, the GI50 is 18.5 µM (inactive) in the experiment with MCF7; 38.5 µM (inactive) in the experiment with MOLT-4; 11.6 µM (inactive) in the experiment with Malme-3M; 13.1 µM (inactive) in the experiment on NCI-H23; 18.4 µM (inactive) in the experiment on NCI-H460; 17.1 µM (inactive) with NCI-H522. The GI50 in the experiment with PC-3 is 12.7 µM (inactive); with RPMI-8226, 41.3 µM (inactive); with SK-MEL-28, 8.97 µM (inactive); with SNB-19, 9.59 µM (inactive); in the experiment on SW-620 it was 12.9 µM (inactive); in the experiment on U-251 it was 6.81 µM (inactive). Further, the GI50 in the experiment with UO-31 was > 42.1 µM (inactive).

`CC(=O)c1sc2[n+](c1C)C(=O)/C(=C\c1ccccc1Cl)S2`: the GI50 was 26.8 µM (inactive) in the experiment with EKVX; 20 µM (inactive) in the experiment with HCC 2998; 14.1 µM with HCT-15; 22.8 µM (inactive) in the experiment on HOP-62; 17.3 µM (inactive) with KM12; 18 µM (inactive) in the experiment on LOX IMVI. In addition, the GI50 is 16.1 µM (inactive) in the experiment with MCF7; 22.4 µM (inactive) with MOLT-4; 17.5 µM (inactive) in the experiment with Malme-3M; 19.3 µM (inactive) with NCI-H23; 16.3 µM (inactive) with NCI-H460; 18.2 µM (inactive) with NCI-H522. Further, the GI50 in the experiment on PC-3 is 22.5 µM (inactive); in the experiment on RPMI-8226, 17.5 µM (inactive); with SK-MEL-28, 16.7 µM (inactive); in the experiment on SNB-19 it was 20.3 µM (inactive); in the experiment with SW-620, 17.3 µM (inactive); with U-251 it was 16.6 µM (inactive). Moreover, in the experiment with UO-31, the GI50 is 19.3 µM (inactive).

For `C#CCOC(=O)C(N)CSSCC(N)C(=O)O` (centres undefined), the GI50 in the experiment with EKVX was > 100 µM (inactive); with HCC 2998 it was > 100 µM (inactive); in the experiment on HCT-15 it was above 100 µM; in the experiment with HOP-62, > 100 µM (inactive); with KM12, > 100 µM (inactive); in the experiment with LOX IMVI, 65.9 µM (inactive). Also, the GI50 with MCF7, with MOLT-4, in the experiment with Malme-3M, with NCI-H23, with NCI-H460 and with NCI-H522 was > 100 µM (inactive) throughout. The GI50 in the experiment on PC-3, in the experiment on RPMI-8226, in the experiment with SK-MEL-28, in the experiment with SNB-19, in the experiment on SW-620 and in the experiment on U-251 was > 100 µM (inactive) each time. Besides, the GI50 in the experiment with UO-31 was > 100 µM (inactive).

As for `COc1cc2cc3c4c(cc(OC)c(OC)c4c2cc1OC)CCN3C`, the GI50 in the experiment with EKVX was 15.3 µM (inactive); with HCC 2998 it was 7.41 µM (inactive); in the experiment on HCT-15 it was 6.84 µM; in the experiment with HOP-62 it was 11.9 µM (inactive); in the experiment with KM12 it was 11 µM (inactive); with LOX IMVI it was 5.25 µM (inactive). Besides, the GI50 is 2.63 µM (inactive) with MCF7; 2.41 µM (inactive) with MOLT-4; 8.53 µM (inactive) with Malme-3M; 12.8 µM (inactive) in the experiment with NCI-H23; 2.65 µM (inactive) in the experiment on NCI-H460; 2.58 µM (inactive) in the experiment with NCI-H522. Moreover, the GI50 in the experiment with PC-3 was 3.52 µM (inactive); in the experiment on RPMI-8226 it was 2.72 µM (inactive); in the experiment with SK-MEL-28, 18.1 µM (inactive); with SNB-19, 12.5 µM (inactive); with SW-620, 7.36 µM (inactive); in the experiment on U-251, 3.58 µM (inactive). For the same compound, the GI50 in the experiment with UO-31 is 2.11 µM (inactive).

As to `Cc1ccc(Nc2n[nH]c(=S)s2)cc1C`, the GI50 with EKVX is > 100 µM (inactive); in the experiment on HCC 2998 it was 70.6 µM (inactive); in the experiment on HCT-15 it was 60.4 µM; with HOP-62, > 100 µM (inactive); with KM12, 78.5 µM (inactive); with LOX IMVI, > 100 µM (inactive). The GI50 in the experiment with MCF7 is 90.4 µM (inactive); with MOLT-4, 59.3 µM (inactive); in the experiment with Malme-3M it was > 100 µM (inactive); in the experiment with NCI-H23, > 100 µM (inactive); in the experiment with NCI-H460 it was 59 µM (inactive); with NCI-H522 it was 60.3 µM (inactive). Also, the GI50 was > 100 µM (inactive) in the experiment on PC-3; 81.5 µM (inactive) in the experiment on RPMI-8226; 57.9 µM (inactive) in the experiment on SK-MEL-28; > 100 µM (inactive) in the experiment on SNB-19; > 100 µM (inactive) in the experiment on SW-620; 92.7 µM (inactive) in the experiment with U-251. Also, in the experiment on UO-31, the GI50 was > 100 µM (inactive).

`Cc1ccc(S(=O)(=O)NC(=O)NCc2ccc(S(N)(=O)=O)cc2)cc1`: the GI50 is > 100 µM (inactive) in the experiment on EKVX; > 100 µM (inactive) in the experiment with HCC 2998; above 100 µM in the experiment with HCT-15; > 100 µM (inactive) with HOP-62; > 100 µM (inactive) in the experiment on KM12; > 100 µM (inactive) with LOX IMVI. In addition, the GI50 in the experiment with MCF7, in the experiment on MOLT-4, in the experiment with Malme-3M, in the experiment with NCI-H23, with NCI-H460 and in the experiment on NCI-H522 was > 100 µM (inactive) each time. Besides, the GI50 in the experiment with PC-3, in the experiment on RPMI-8226, in the experiment with SK-MEL-28, in the experiment with SNB-19, with SW-620 and in the experiment with U-251 was > 100 µM (inactive) in each case. The GI50 with UO-31 is > 100 µM (inactive).

As for `[O-][S+](c1ccccc1)C1CC2CC3(CCC21O)OCCO3` (centres undefined), the GI50 in the experiment with EKVX was > 100 µM (inactive); in the experiment with HCC 2998, > 100 µM (inactive); with HCT-15, above 100 µM; in the experiment on HOP-62, > 100 µM (inactive); with KM12, > 100 µM (inactive); with LOX IMVI, > 100 µM (inactive). In addition, the GI50 in the experiment with MCF7, in the experiment on MOLT-4, in the experiment with Malme-3M, in the experiment with NCI-H23, with NCI-H460 and in the experiment with NCI-H522 was > 100 µM (inactive) throughout. The GI50 in the experiment on PC-3, in the experiment with RPMI-8226, with SK-MEL-28, in the experiment on SNB-19, with SW-620 and in the experiment on U-251 was > 100 µM (inactive) each time. Further, the GI50 in the experiment with UO-31 was > 100 µM (inactive).

As to `COc1cc(-c2c3c([nH]c(=O)c2C#N)-c2cc([N+](=O)[O-])ccc2CCC3)cc(OC)c1OC`, the GI50 with EKVX was 24.4 µM (inactive); with HCC 2998, 17.2 µM (inactive); in the experiment with HCT-15, 26.4 µM; in the experiment on HOP-62, 19.9 µM (inactive); in the experiment with KM12, 20.2 µM (inactive); in the experiment with LOX IMVI, 15.1 µM (inactive). In addition, the GI50 in the experiment with MCF7 was 17.4 µM (inactive); in the experiment on MOLT-4, 16 µM (inactive); with Malme-3M it was 22.8 µM (inactive); with NCI-H23 it was 17.4 µM (inactive); in the experiment on NCI-H460, 16.8 µM (inactive); with NCI-H522, 15.6 µM (inactive). The GI50 with PC-3 was 20.2 µM (inactive); in the experiment on RPMI-8226 it was 9.08 µM (inactive); in the experiment with SK-MEL-28, 43.5 µM (inactive); in the experiment with SNB-19 it was 30.8 µM (inactive); in the experiment with SW-620 it was 40.5 µM (inactive); in the experiment on U-251 it was 23.6 µM (inactive). Also, the GI50 in the experiment with UO-31 was 19 µM (inactive).
